# Data as given in ChEMBL document CHEMBL1131307, “Novel nonnucleoside inhibitors of HIV-1 reverse transcriptase. 8. 8-Aryloxymethyl- and 8-arylthiomethyldipyridodiazepinones” (J Med Chem, 1998).
# Legend:
# [1] = system: Human immunodeficiency virus type 1 reverse transcriptase (Human immunodeficiency virus 1), Q72547 [Y181C]; experiment: Inhibitory activity against HIV-1 Y181C reverse transcriptase at 1 uM concentration
# [2] = target: Human immunodeficiency virus type 1 reverse transcriptase (Human immunodeficiency virus 1, UniProt Q72547); experiment: Inhibitory activity against HIV-1 wild-type reverse transcriptase.
# [3] = system: Human immunodeficiency virus type 1 reverse transcriptase (Human immunodeficiency virus 1), Q72547 [R221A]; experiment: Inhibitory activity against HIV-1 Y188L reverse transcriptase at 1 uM concentration
# [4] = target: Human immunodeficiency virus type 1 reverse transcriptase (Human immunodeficiency virus 1, UniProt Q72547, Y188L); experiment: Inhibitory activity against HIV-1 Y188L reverse transcriptase.
# [5] = target: Human immunodeficiency virus type 1 reverse transcriptase (Human immunodeficiency virus 1, UniProt Q72547, K103N); experiment: Inhibitory activity against HIV-1 Mutant Reverse transcriptase K103N
# [6] = target: Human immunodeficiency virus type 1 reverse transcriptase (Human immunodeficiency virus 1, UniProt Q72547, Y181C); experiment: Inhibitory activity against HIV-1 Y181C reverse transcriptase.
# [7] = Compound was tested for its toxicity by using MTT toxicity assay.
# Homo sapiens [8] = organism: Homo sapiens; experiment: (§1) In vitro metabolism in human liver microsomes
# [9] = target: Human immunodeficiency virus type 1 reverse transcriptase (Human immunodeficiency virus 1) (UniProt Q72547); experiment: Inhibitory activity against HIV-1 wild-type reverse transcriptase at 1 uM concentration
# C8166 [10] = experiment: (§2) Inhibitory activity against HIV-1 IIIB replication in C8166 cells.; assay type: functional, cell-based; settings: Homo sapiens
# C8166 [11] = experiment: as §2; assay type: functional; settings: Homo sapiens
# Homo sapiens [12] = organism: Homo sapiens; experiment: as §1; assay type: ADME
# [13] = system: Human immunodeficiency virus type 1 reverse transcriptase (Human immunodeficiency virus 1), Q72547 [R221A]; experiment: Inhibitory activity against HIV-1 Y188L reverse transcriptase t 1 uM concentration
smiles,measurement,setting,value
CCN1c2ncc(CN(C)c3ccccc3)cc2C(=O)N(C)c2ccc(Cl)nc21,inhibition,[1],18%
same,IC50,[2],590 nM
same,inhibition,[3],17%
CCN1c2ncc(COc3ccncc3)cc2C(=O)N(C)c2cccnc21,IC50,[4],5520 nM
same,IC50,[2],20 nM
same,IC50,[5],50 nM
same,IC50,[6],140 nM
same,CC30,[7],> 256000 nM
CCN1c2ncc(N(C)C(=O)c3ccccc3)cc2C(=O)N(C)c2ccc(Cl)nc21,inhibition,[1],22%
same,IC50,[2],210 nM
same,inhibition,[3],13%
CCN1c2ncc(COc3cccc(C(=O)OC)c3)cc2C(=O)N(C)c2ccc(Cl)nc21,inhibition,[1],23%
same,IC50,[2],700 nM
same,inhibition,[3],11%
CCN1c2ncc(C[S+]([O-])c3ccccc3)cc2C(=O)N(C)c2ccc(Cl)nc21 (configuration not stated),IC50,[4],2420 nM
same,IC50,[2],70 nM
same,IC50,[6],140 nM
same,CC30,[7],45000 nM
CCN1c2ncc(COc3ccccc3O)cc2C(=O)N(C)c2ccc(Cl)nc21,IC50,[2],100 nM
same,IC50,[6],350 nM
CCN1c2ncc(COc3ccncc3)cc2C(=O)N(C)c2ccc(F)nc21,Metabolism,Homo sapiens [8],41 pmol/min/mg
same,IC50,[2],50 nM
same,IC50,[5],40 nM
same,IC50,[6],190 nM
same,CC30,[7],160000 nM
CCN1c2ncc(CNc3ccccc3)cc2C(=O)N(C)c2ccc(Cl)nc21,IC50,[2],80 nM
same,IC50,[5],50 nM
same,IC50,[6],370 nM
same,CC30,[7],> 60000 nM
CCN1c2ncc(COc3cccc4[nH]ccc34)cc2C(=O)N(C)c2ccc(Cl)nc21,Metabolism,Homo sapiens [8],208 pmol/min/mg
same,IC50,[4],1360 nM
same,IC50,[2],330 nM
same,IC50,[6],200 nM
same,CC30,[7],> 30000 nM
CCN1c2ncc(COc3ccnc(C)c3)cc2C(=O)N(C)c2ccc(Cl)nc21,IC50,[4],230 nM
same,IC50,[2],30 nM
same,IC50,[6],30 nM
CCN1c2ncc(OCc3ccccc3)cc2C(=O)N(C)c2ccc(Cl)nc21,inhibition,[1],0%
same,inhibition,[9],20%
same,inhibition,[3],0%
CCN1c2ncc(COc3ccccc3C(=O)OC)cc2C(=O)N(C)c2ccc(Cl)nc21,inhibition,[1],2%
same,inhibition,[9],25%
same,inhibition,[3],2%
CCN1c2ncc(CNc3cccc(N)c3)cc2C(=O)N(C)c2ccc(Cl)nc21,IC50,[2],60 nM
same,IC50,[6],100 nM
same,CC30,[7],60000 nM
CCN1c2ncc(COc3cc[n+]([O-])c(C)c3)cc2C(=O)N(C)c2ccc(Cl)nc21,IC50,[4],4310 nM
same,IC50,[2],100 nM
same,IC50,[6],210 nM
CCN1c2ncc(COc3cccc(N(C)C)c3)cc2C(=O)N(C)c2ccc(Cl)nc21,inhibition,[1],0%
same,inhibition,[9],0%
same,inhibition,[3],7%
CCN1c2ncc(COc3ccncc3)cc2C(=O)N(C)c2ccc(Cl)nc21,Metabolism,Homo sapiens [8],53 pmol/min/mg
same,IC50,C8166 [10],6 nM
same,IC90,C8166 [11],24 nM
same,IC50,[2],70 nM
same,IC50,[5],70 nM
same,IC50,[6],260 nM
same,CC30,[7],> 120000 nM
CCN1c2ncc(CS(=O)(=O)c3ccccc3)cc2C(=O)N(C)c2ccc(Cl)nc21,Metabolism,Homo sapiens [8],322 pmol/min/mg
same,IC50,[4],11000 nM
same,IC50,[2],100 nM
same,IC50,[6],60 nM
CCN1c2ncc(COc3cc[n+]([O-])cc3)cc2C(=O)N(C)c2cccnc21,IC50,[2],210 nM
same,IC50,[6],1340 nM
CCN1c2ncc(COc3cccc(C(=O)O)c3)cc2C(=O)N(C)c2ccc(Cl)nc21,IC50,[2],90 nM
same,IC50,[5],190 nM
same,IC50,[6],550 nM
same,CC30,[7],250000 nM
CCN1c2ncc(CSc3ncccn3)cc2C(=O)N(C)c2ccc(Cl)nc21,IC50,[2],30 nM
same,IC50,[6],60 nM
CCN1c2ncc(COc3cccc([N+](=O)[O-])c3)cc2C(=O)N(C)c2ccc(Cl)nc21,IC50,[2],170 nM
same,IC50,[6],350 nM
CCN1c2ncc(COc3cc[n+]([O-])c(C(F)(F)F)c3)cc2C(=O)N(C)c2ccc(Cl)nc21,IC50,[2],120 nM
same,IC50,[6],270 nM
CCN1c2ncc(COc3ccc(O)cc3)cc2C(=O)N(C)c2ccc(Cl)nc21,inhibition,[1],27%
same,IC50,[2],210 nM
same,inhibition,[3],21%
CCN1c2ncc(COc3cccc(C(N)=O)c3)cc2C(=O)N(C)c2ccc(Cl)nc21,Metabolism,Homo sapiens [8],292 pmol/min/mg
same,IC50,[4],340 nM
same,IC50,[2],30 nM
same,IC50,[6],280 nM
same,CC30,[7],130000 nM
CCN1c2ncc(COc3ccc(C(=O)OC)cc3)cc2C(=O)N(C)c2ccc(Cl)nc21,inhibition,[1],33%
same,IC50,[2],800 nM
same,inhibition,[3],0%
Cc1ccnc2c1NC(=O)c1cccnc1N2C1CC1 [NEVIRAPINE],Metabolism,Homo sapiens [12],2 pmol/min/mg
CCN1c2ncc(COc3cccc(N)c3)cc2C(=O)N(C)c2ccc(Cl)nc21,IC50,C8166 [10],19 nM
same,IC90,C8166 [11],36 nM
same,IC50,[4],370 nM
same,IC50,[2],50 nM
same,IC50,[6],100 nM
CCN1c2ncc(COc3ccccc3)cc2C(=O)N(C)c2ccc(Cl)nc21,Metabolism,Homo sapiens [8],171 pmol/min/mg
same,IC50,C8166 [10],50 nM
same,IC90,C8166 [11],113 nM
same,IC50,[4],640 nM
same,IC50,[2],110 nM
same,IC50,[5],20 nM
same,IC50,[6],60 nM
same,CC30,[7],> 60000 nM
CCN1c2ncc(COc3ccc4[nH]ccc4c3)cc2C(=O)N(C)c2ccc(Cl)nc21,IC50,[2],310 nM
same,IC50,[6],90 nM
CCN1c2ncc(COc3ccnc(C(F)(F)F)c3)cc2C(=O)N(C)c2ccc(Cl)nc21,Metabolism,Homo sapiens [8],206 pmol/min/mg
same,IC50,[2],40 nM
same,IC50,[6],70 nM
CCN1c2ncc(COc3cc[n+]([O-])cc3)cc2C(=O)N(C)c2ccc(F)nc21,inhibition,[3],31%
CC(C)Nc1cccnc1N1CCN(C(=O)c2cc3cc(NS(C)(=O)=O)ccc3[nH]2)CC1 [DELAVIRDINE],Metabolism,Homo sapiens [8],144 pmol/min/mg
CCN1c2ncc(COc3cccc(F)c3)cc2C(=O)N(C)c2ccc(Cl)nc21,inhibition,[1],11%
same,inhibition,[9],24%
same,inhibition,[3],16%
CCN1c2ncc(CCc3ccccc3)cc2C(=O)N(C)c2ccc(Cl)nc21,Metabolism,Homo sapiens [8],288 pmol/min/mg
same,IC50,[4],960 nM
same,IC50,[2],50 nM
same,IC50,[5],50 nM
same,IC50,[6],150 nM
CCN1c2ncc(CSc3ccncc3)cc2C(=O)N(C)c2ccc(Cl)nc21,Metabolism,Homo sapiens [8],372 pmol/min/mg
same,IC50,[2],20 nM
same,IC50,[6],50 nM
CCN1c2ncc(CSc3[nH]cnc4nncc3-4)cc2C(=O)N(C)c2ccc(Cl)nc21,Metabolism,Homo sapiens [8],336 pmol/min/mg
same,IC50,[4],120 nM
same,IC50,[2],50 nM
same,IC50,[6],70 nM
same,CC30,[7],40000 nM
CCN1c2ncc(C(=O)N(C)c3ccccc3)cc2C(=O)N(C)c2ccc(Cl)nc21,inhibition,[1],20%
same,inhibition,[9],15%
same,inhibition,[13],46%
CCN1c2ncc(CSc3ccccc3)cc2C(=O)N(C)c2ccc(Cl)nc21,Metabolism,Homo sapiens [8],554 pmol/min/mg
same,IC50,C8166 [10],5 nM
same,IC90,C8166 [11],13 nM
same,IC50,[4],30 nM
same,IC50,[2],20 nM
same,IC50,[5],30 nM
same,IC50,[6],10 nM
same,CC30,[7],> 60000 nM
CCN1c2ncc(COc3cc[n+]([O-])cc3)cc2C(=O)N(C)c2ccc(Cl)nc21,inhibition,[1],39%
same,IC50,[2],230 nM
same,inhibition,[3],0%
CCN1c2ncc(COc3cccc(OC)c3)cc2C(=O)N(C)c2ccc(Cl)nc21,IC50,[2],100 nM
same,IC50,[5],130 nM
same,IC50,[6],280 nM
CCN1c2ncc(NCc3ccccc3)cc2C(=O)N(C)c2ccc(Cl)nc21,IC50,[2],260 nM
same,IC50,[6],390 nM
same,inhibition,[3],0%
CCN1c2ncc(COc3ccc(F)cc3)cc2C(=O)N(C)c2ccc(Cl)nc21,IC50,[2],280 nM
same,IC50,[6],1660 nM
CCN1c2ncc(COc3cccnc3)cc2C(=O)N(C)c2ccc(Cl)nc21,IC50,[2],190 nM
same,IC50,[6],260 nM
CCN1c2ncc(CCc3ccncc3)cc2C(=O)N(C)c2ccc(Cl)nc21,Metabolism,Homo sapiens [8],145 pmol/min/mg
same,IC50,[4],1850 nM
same,IC50,[2],80 nM
same,IC50,[5],120 nM
same,IC50,[6],120 nM
